Holding throughout (assay type): biochemical
Assay [1] can be described thus: Ubiquitin-Rhodamine 110 Assay for USP25 Activity, Example A-3. The conditions noted are these: Ubiquitin-Rhodamine 110 biochemical assay, Example A-1(b); read-out: USP28 A-1(b) IC50 range. The procedure, abridged: (§1)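 USP25-His6 ([…] final as stated) preincubated 30 min with compound (10-point, 25 μM to 1.3 nM), then Ub-Rh110 at 25 nM (<<Km) added in pH 8.0 Tris buffer with BME, BGG and Triton X-100. Reaction stopped after 45 min at room temperature with 10 mM citric acid; fluorescence read at 485/535 nm.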

The target in assay [2] is T1, USP28 (His-tagged USP28-FL-mammalian) (Homo sapiens, UniProt Q96RU2).
T1 construct: Expression of USP28 (1-1077)-TEV-6*His (pTT5 vector) was carried out in Expi293f cells; made in house; host or cells: Expi293F cells (pTT5 vector)
T1 sequence (Q96RU2 1-1077): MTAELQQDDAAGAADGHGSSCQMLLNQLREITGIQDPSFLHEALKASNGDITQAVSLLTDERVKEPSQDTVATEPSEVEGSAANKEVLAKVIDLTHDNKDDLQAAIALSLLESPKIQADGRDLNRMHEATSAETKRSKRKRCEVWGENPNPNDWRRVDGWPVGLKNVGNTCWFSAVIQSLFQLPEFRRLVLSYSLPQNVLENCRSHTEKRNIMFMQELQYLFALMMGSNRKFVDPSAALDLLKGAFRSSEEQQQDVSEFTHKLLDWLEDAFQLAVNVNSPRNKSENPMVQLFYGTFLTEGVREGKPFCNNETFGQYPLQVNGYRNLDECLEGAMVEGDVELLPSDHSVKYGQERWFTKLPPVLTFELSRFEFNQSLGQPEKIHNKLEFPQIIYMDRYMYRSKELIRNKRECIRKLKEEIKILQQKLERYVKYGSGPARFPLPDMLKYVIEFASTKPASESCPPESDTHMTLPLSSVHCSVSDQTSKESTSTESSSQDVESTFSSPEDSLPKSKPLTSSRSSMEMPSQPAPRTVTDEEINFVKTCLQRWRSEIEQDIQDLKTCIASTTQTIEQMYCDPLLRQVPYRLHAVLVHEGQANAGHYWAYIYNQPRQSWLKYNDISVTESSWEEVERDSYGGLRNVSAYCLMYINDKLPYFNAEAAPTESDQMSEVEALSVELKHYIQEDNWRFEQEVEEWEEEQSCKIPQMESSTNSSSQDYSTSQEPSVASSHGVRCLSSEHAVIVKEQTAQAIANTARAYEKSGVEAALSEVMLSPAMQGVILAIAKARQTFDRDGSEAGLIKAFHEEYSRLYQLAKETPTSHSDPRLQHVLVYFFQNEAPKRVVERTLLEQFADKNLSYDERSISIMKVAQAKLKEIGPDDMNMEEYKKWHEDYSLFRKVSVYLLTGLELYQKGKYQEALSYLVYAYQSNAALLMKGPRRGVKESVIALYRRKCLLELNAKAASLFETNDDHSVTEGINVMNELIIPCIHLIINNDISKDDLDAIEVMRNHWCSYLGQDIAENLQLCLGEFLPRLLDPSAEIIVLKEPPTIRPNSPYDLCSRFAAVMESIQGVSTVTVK
Kind of assay: Ubiquitin-Rhodamine 110 Assay for USP28 Activity, Example A-1(a). The conditions noted are these: Ubiquitin-Rhodamine 110 biochemical assay, read-out: USP28 A-1(a) IC50 range. The procedure, abridged:
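Full-length His-tagged human USP28 (1-1077), expressed in Expi293F cells, was used at […] with 25 nM Ub-Rh110 (<<Km) in 20 mM Tris pH 8.0, 3 mM BME, 0.03% BGG and 0.01% Triton X-100. Compounds (25 μM-1.3 nM, 10-point) were preincubated with enzyme for 30 min, and the reaction ran 45 min at room temperature before a citric acid stop. Fluorescence was read at 485/535 nm, and IC50 came from 4-parameter fits of percent inhibition.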

In assay [3] the target is T2, USP28 (USP28-5(1-1077)-TEV-6*His; LifeSensors) (Homo sapiens, UniProt Q96RU2).
T2 construct: construct USP28 (USP28-5(1-1077)-TEV-6*His; LifeSensors); TEV cleavage site (C); 6xHis (C); purchased LifeSensors
T2 sequence (Q96RU2 1-1077): T1 sequence (Q96RU2 1-1077)
Kind of assay: Ubiquitin-Rhodamine 110 Assay for USP28 Activity, Example A-1(b). As to the method: Example A-1(b): Biochemical Assay: Ubiquitin-Rhodamine 110 Assay for USP28 Activity
Each assay was performed in a final volume of 20 μL in assay buffer containing 20 mM Tris-HCl (pH 8.0, (1M Tris-HCl, pH 8.0 solution; Corning 46-031-CM)), 2 mM CaCl2 (1M Calcium Chloride solution; Sigma #21114) 2 mM BME (2-Mercaptoethanol; Sigma 63689-25ML-F), 0.01% Prionex (0.22 μM filtered, Sigma #G-0411), and 0.01% Triton X-100. Stock compound solutions were stored at −20° C. as 10 mM in DMSO. Up to 1 month prior to the assay, 2 mM test compounds were pre-dispensed into assay plates (Black, low volume; Corning #3820) and frozen at −20° C. Prestamped assay plates were allowed to come to room temperature on the day of the assay. For the screen, 100 nL of 2 mM was pre-dispensed for a final screening concentration of 10 μM (DMSO(fc)=0.5%). […] Plates were incubated stacked for 90 minutes at room temperature before fluorescence was read on the Envision (Excitation at 485 nm and Emission at 535 nm; Perkin Elmer) or on the PheraSTAR (Excitation at 485 nm and Emission at 535 nm; BMG Labtech).
For follow-up studies, each assay was performed in a final volume of 15 μL in assay buffer containing 20 mM Tris-HCl (pH 8.0, (1M Tris-HCl, pH 8.0 solution; Corning 46-031-CM)), 3 mM BME (2-Mercaptoethanol; Sigma 63689-25ML-F), 0.03% BGG (0.22 μM filtered, Sigma, G7516-25G), and 0.01% Triton X-100 (Sigma, T9284-10L). Nanoliter quantities of either an 8-point or 10-point, 3-fold serial dilution in DMSO was pre-dispensed into assay plates (Perkin Elmer, ProxiPlate-384 F Plus, #) for a final test concentration of either 25 μM to 11 nM or 25 μM to 1.3 nM, respectively. Enzyme USP28, construct USP28 (USP28-5(1-1077)-TEV-6*His; LifeSensors) concentration and incubation times were optimized for the maximal signal-to-background while maintaining initial velocity conditions at a fixed substrate concentration. The final concentration of the enzyme in the assay was […]. Final substrate (Ub-Rh110; Ubiquitin-Rhodamine 110, R&D Systems #U-555) concentration was 25 nM with [Ub-Rh110]<<Km. 5 μL of 2× enzyme was added to assay plates (pre-stamped with compound) preincubated with USP28 for 30 minutes and then 5 μL of 2× Ub-Rh110 was added to assay plates. Plates were incubated stacked for 20 minutes at room temperature before 5 μL of stop solution was added (final concentration of 10 mM citric acid (Sigma, 251275-500G)). Fluorescence was read on the Envision (Excitation at 485 nm and Emission at 535 nm; Perkin Elmer) or on the PheraSTAR (Excitation at 485 nm and Emission at 535 nm; BMG Labtech).
For assay formats Example A-1(a), A-1(b), and A-2, data were reported as percent inhibition compared with control wells based on the following equation: % inh=1−((FLU−AveLow)/(AveHigh−AveLow)) where FLU=measured Fluorescence, AveLow=average Fluorescence of no enzyme control (n=16), and AveHighh=average Fluorescence of DMSO control (n=16). IC50 values were determined by curve fitting of the standard 4 parameter logistic fitting algorithm included in the Activity Base software package: IDBS XE Designer Model 205. Data is fitted using the Levenburg Marquardt algorithm.

Assay [4] has as its target T3, USP25 (USP25-His6, Boston Biochem E-546) (Homo sapiens, UniProt Q9UHP3).
T3 construct: His6 (C); purchased Boston Biochem E-546
T3 sequence (Q9UHP3 1-1055): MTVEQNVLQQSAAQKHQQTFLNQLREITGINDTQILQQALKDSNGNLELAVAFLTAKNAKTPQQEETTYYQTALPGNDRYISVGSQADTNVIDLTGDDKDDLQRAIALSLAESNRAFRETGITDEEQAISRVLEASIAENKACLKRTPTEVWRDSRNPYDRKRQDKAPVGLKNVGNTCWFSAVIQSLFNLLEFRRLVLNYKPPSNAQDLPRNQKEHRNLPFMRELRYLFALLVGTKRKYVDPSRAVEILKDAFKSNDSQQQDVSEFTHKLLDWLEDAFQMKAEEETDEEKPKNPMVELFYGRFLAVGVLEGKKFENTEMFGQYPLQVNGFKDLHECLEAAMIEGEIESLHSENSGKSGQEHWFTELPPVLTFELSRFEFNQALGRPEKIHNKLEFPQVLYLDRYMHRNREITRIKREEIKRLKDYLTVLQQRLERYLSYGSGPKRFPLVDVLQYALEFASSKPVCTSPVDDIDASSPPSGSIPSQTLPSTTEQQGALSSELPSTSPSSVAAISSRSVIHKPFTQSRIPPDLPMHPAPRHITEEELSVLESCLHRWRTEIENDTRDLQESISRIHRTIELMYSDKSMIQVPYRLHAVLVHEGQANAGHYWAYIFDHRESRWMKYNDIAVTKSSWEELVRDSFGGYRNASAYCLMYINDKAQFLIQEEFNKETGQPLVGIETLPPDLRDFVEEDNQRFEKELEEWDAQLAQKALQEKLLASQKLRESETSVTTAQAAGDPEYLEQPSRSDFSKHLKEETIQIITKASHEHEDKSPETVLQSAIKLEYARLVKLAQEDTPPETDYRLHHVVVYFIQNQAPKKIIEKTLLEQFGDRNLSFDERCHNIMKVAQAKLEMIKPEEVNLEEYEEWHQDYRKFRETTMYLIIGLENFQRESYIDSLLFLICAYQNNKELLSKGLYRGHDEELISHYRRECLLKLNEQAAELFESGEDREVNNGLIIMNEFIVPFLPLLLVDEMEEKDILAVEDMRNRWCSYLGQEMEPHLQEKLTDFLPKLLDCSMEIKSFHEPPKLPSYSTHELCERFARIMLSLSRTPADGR
Kind of assay: Ubiquitin-Rhodamine 110 Assay for USP25 Activity, Example A-3. The conditions noted are these: Ubiquitin-Rhodamine 110 assay, Example A-3. The procedure, abridged: as §1

Like-named read-outs stand apart in the source and are kept apart here. Where only a bound is given, the exact number is not on record here.

As usually defined, the IC50 is the concentration needed to halve the response being measured. Turning to `Cc1nc2sc(C(=O)N[C@H]3CCc4nc(N5C[C@@H](CF)[C@H](N)C5)ccc4C3)c(N)c2cc1F` [Example 507, 3-amino-N-[(6S)-2-[(3S,4R)-3-amino-4-(fluoromethyl)pyrrolidin-1-yl]-5,6,7,8-tetrahydroquinolin-6-yl]-5-fluoro-6-methylthieno[2,3-b]pyridine-2-carboxamide], the IC50 in assay [1] was in the range of 0.2 to 2 µM; in assay [2], 0.05 to 0.2 µM.
In the same order, the values of `CCN[C@H]1CN(c2ccc3c(n2)CC[C@H](NC(=O)c2sc4nc(C)ccc4c2N)C3)C[C@@H]1COC` [Example 476, 3-amino-N-[(6S)-2-[(3R,4S)-3-(ethylamino)-4-(methoxymethyl)pyrrolidin-1-yl]-5,6,7,8-tetrahydroquinolin-6-yl]-6-methylthieno[2,3-b]pyridine-2-carboxamide] are > 2 µM and 0.05 to 0.2 µM.
For `CCn1ccc2cc(C(=O)N[C@H]3CCc4cc(N5CC6CCC(C5)N6)ccc4C3)nnc21` (single isomer, unassigned) [Example 11-24], the “USP28 A-1(b) IC50 range” value in assay [3] is “+ (“+”L>2 μM)”.
Same read-out and setting: the value for `CCn1ccc2cc(C(=O)N[C@@H]3CCc4cc(N5CC6CCC(C5)N6)ccc4C3)nnc21` (single isomer, unassigned) [Example 11-23] was “+ (“+”L>2 μM)”.
On to `Cc1ccc2c(N)c(C(=O)N[C@H]3COc4cc(N5C[C@@H]6CNC[C@H]6C5)ccc4C3)sc2n1` [Example 43, 3-amino-N-((R)-7-((3aR,6aR)-hexahydropyrrolo[3,4-c]pyrrol-2(1H)-yi)chroman-3-yl)-6-methylthieno[2,3-b]pyridine-2-carboxamide], for which the “USP28 A-1(b) IC50 range” value in assay [3] was “+ (“+”L>2 μM)”.
In the case of `Cc1ccc2c(N)c(C(=O)N[C@H]3COc4cc(N5CC[C@@H]6CCC(N)C[C@@H]65)ccc4C3)sc2n1` (stereo in doubt) [Example 234, N-[(3R)-7-[(3aS,6S,7aS)-6-amino-octahydro-1H-indol-1-yl]-3,4-dihydro-2H-1-benzopyran-3-yl]-3-amino-6-methylthieno[2,3-b]pyridine-2-carboxamide], the IC50 in assay [4] (IC50 ranges, read-out: USP25 A-3 IC50) lay in the range of 0.05 to 0.2 µM.
Regarding `Cc1ccc2c(N)c(C(=O)N[C@H]3CCc4nc(N5C[C@H](CF)[C@@H](N)C5)ccc4C3)sc2n1` [Example 384, 3-amino-N-[(6S)-2-[(3R,4S)-3-amino-4-(fluoromethyl)pyrrolidin-1-yl]-5,6,7,8-tetrahydroquinolin-6-yl]-6-methylthieno[2,3-b]pyridine-2-carboxamide], the IC50 in assay [4] (read-out: USP25 A-3 IC50 range) was in the range of 0.2 to 2 µM.
As for `Cc1ccc2c(N)c(C(=O)N[C@H]3CCc4nc(N5CC[C@@]6(C5)OCC[C@@H]6N)ccc4C3)sc2n1` [Example 407, 3-amino-N-[(6S)-2-[(4S,5S)-4-amino-1-oxa-7-azaspiro[4.4]nonan-7-yl]-5,6,7,8-tetrahydroquinolin-6-yl]-6-methylthieno[2,3-b]pyridine-2-carboxamide], the IC50 in assay [4] (read-out: USP25 A-3 IC50 range) was > 2 µM.

These data come from US12162888B2, “Carboxamides as ubiquitin-specific protease inhibitors” (Valo Early Discovery, Inc., priority 2018, dated 2024).
